{"source": "patent US12257283B2", "about": "(priority 2019, dated 2025)", "key": {"[1]": {"system": "cocaine reward", "details": "literature data, cited from earlier work"}, "[2]": {"system": "cocaine locomotor activation", "details": "literature data, cited from earlier work"}, "[3]": {"system": "cocaine taking", "details": "literature data; cited from earlier work"}, "[4]": {"biological_target": "chemokine receptors CCR2/CCR5", "assay_type": "biochemical", "details": "inhibition of chemokine receptors CCR2/CCR5; read-out: Potency EC50", "text": "Table 1 illustrates the potencies of several peptides of the invention to inhibit chemokine receptors CCR2/CCR5. These receptor-active peptides (Receptides, abbreviated as RAP's) represent a novel, safe and non-addictive pharmacological intervention for substance abuse disorders by normalizing the neurobiology of addiction to suppress drug-seeking behaviors, reduce psychostimulant (cocaine, methamphetamine) activation and locomotion, and inhibit consumption of alcohol, other drugs of abuse and substance abuse in general. They may also treat depression and anxiety as those commonly occur in substance abuse. […] Decades-old treatments (methadone, buprenorphine etc.) require extended use, suffer from high recidivism, are only partly effective and are clearly inadequate. New treatments with no abuse liability, that blunt drug-seeking, dependence, and facilitate recovery and withdrawal are a priority need."}, "[5]": {"system": "cocaine induced locomotor behavior", "details": "rats, 0.001, 0.01, 0.03 mg/kg, p.o., 30 min before cocaine 10 mgs/Kg", "procedure": "Locomotor activity (ambulation+stereotypy) induced by cocaine and the effect of RAP-103 was assessed using a Digiscan DMicro system. Following a 60-min habituation in activity chambers, rats were pretreated with RAP-103 (0.03, 0.01, 0.001 mgs/Kg) or vehicle 30 min before cocaine (10 mgs/Kg) or vehicle and activity was measured for 120 min. Differences between individual groups were determined with a Bonferroni post-hoc test. Statistical significance was set at p<0.05."}, "[6]": {"system": "MOR-dependent rats", "details": "0.5 mg/kg, naloxone 3 mg/kg SC on day 7, quantified for 60 min", "procedure": "Opioid tolerance during chronic exposure requires increasing opioid doses to maintain analgesic efficacy. Physical dependence also develops during chronic opioid exposure and, upon discontinuation of opioid intake, presents as a withdrawal syndrome that triggers opioid relapse. We tested the effects of RAP-103 (0.5 mg/kg) on naloxone-precipitated withdrawal signs in MOR-dependent rats. To induce physical dependence we implanted opioid (heroine) containing pellets. On day 7 rats received naloxone (3 mg/kg, SC) with or without added RAP-103 and the withdrawal signs of wet dog shakes and eye blinking were quantified for 60 min."}, "[7]": {"system": "opioid self-administration", "details": "rats, MOR 0.25 mg/kg/inf", "text": "Rats were surgically prepared to have indwelling catheters prior to self-administration testing. To begin each session, house lights were turned on and two retractable levers extended into the chamber. […] A 20-s timeout period will follow each infusion to limit possibility of overdose. […] The dependent variable measured will be the number of infusions earned by the end of the session and defined as the breakpoint. Total cumulative responses made by the rat on the active lever during each session will also be recorded. Once rats reach criteria for stable PR responding, which is defined as 3 consecutive days of responding without upward or downward variance (<20% change from mean number of reinforcers earned for 3 consecutive days), R103 (0.02, 0.1, and 0.5 mg/kg) will be administered 15 min before daily SA sessions to assess effects on breaking point and to obtain dose-effect data for R103. A repeated-measures 2-way ANOVA (R103 treatment, sex) between-subjects design followed by a Bonferroni test was used."}, "[8]": {"system": "CCL2, CCL3", "text": "Because opioids are used in the management of pain conditions that contribute to OUD, we determined the efficacy of a small peptide chemokine receptor antagonist RAP-103 (all-D-TTNYT, SEQ ID #1, Table 1), sometimes called RAP-103 or R103) to reverse opioid receptor analgesic tolerance and block pain as a test of its ability to block-drug seeking behaviors. Painful diabetic neuropathy (PDN) is a common complication of diabetes which adversely affects patients' daily life, often involves opioid use, which creates an addiction risk. […] To test the hypothesis, we first used behavioral and molecular/cellular approaches to explore chronic pain development and inflammatory reaction in Streptozotocin (STZ) induced diabetic rats. […] CCL2 and CCL3 are two chemokines well known in mediating immune cell trafficking and immune response in the context of neuropathic pain.\n(§1) Rats were fasted overnight and received a single intraperitoneal injection of streptozotocin (60 mg/kg, Sigma-Aldrich) in citrate buffer (pH 4.5) to induce type I diabetes. The induction of diabetes was confirmed 72 h after streptozotocin injection by measurement of blood glucose levels using Contour® blood glucose diagnostic kit (Bayer HealthCare, Canada). Body weight and blood glucose levels were measured before and 3 days after streptozotocin injection, once a week for three weeks after diabetes induction. Only rats having blood glucose concentration consistently higher than 300 mg/dl were used for the present study."}, "[9]": {"system": "STZ induced diabetic rats", "details": "oral administration", "procedure": "as §1\nThe treatment lasted for 8 days Note, n=5 for H2O and n=7 for RAP-103/each dose.\nTactile allodynia Mechanical sensitivity was assessed using calibrated von Frey hairs (7). Animals were placed in Plexiglas boxes on an elevated metal mesh floor and allowed 60 min for habituation before testing. A series of von Frey filaments with logarithmically incrementing stiffness was applied perpendicular to the mid-plantar region of the hind paw. The 50% paw withdrawal threshold was determined using Dixon's up-down method. Withdrawal thresholds of both paws were averaged as one single value per animal. Assessment on the effects of RAP103 on mechanical and cold allodynia was performed between 2-4 hours following the drug administration. […] All data were presented as means±SEM. […]"}, "[10]": {"system": "streptozotocin (STZ) induced diabetic rats", "procedure": "as §1, with “study. […]” for “study.”\nTactile allodynia Mechanical sensitivity was assessed using calibrated von Frey hairs (7). Animals were placed in Plexiglas boxes on an elevated metal mesh floor and allowed 60 min for habituation before testing. A series of von Frey filaments with logarithmically incrementing stiffness was applied perpendicular to the mid-plantar region of the hind paw. The 50% paw withdrawal threshold was determined using Dixon's up-down method. Withdrawal thresholds of both paws were averaged as one single value per animal. Assessment on the effects of RAP103 on mechanical and cold allodynia was performed between 2-4 hours following the drug administration. […] All data were presented as means±SEM. Statistical analysis was performed by two-way ANOVA followed by Bonferroni post-tests. The criterion for statistical significance was P<0.05."}, "[11]": {"details": "STZ diabetic rats, oral administration for 7 days"}}, "note": "Like-named read-outs stand apart in the source and are kept apart here."}
{"compound": "Maraviroc", "values": [{"measurement": "cocaine reward / conditioned place preference (CPP)", "setting": "[1]", "result": "reduces rewarding"}, {"measurement": "locomotor activation produced by cocaine", "setting": "[2]", "result": "reduces"}]}
{"compound": "c1cc(CN2CCCNCCNCCCNCC2)ccc1CN1CCCNCCNCCCNCC1", "note": "[AMD3100, Plerixafor]", "values": [{"measurement": "cocaine reward / conditioned place preference (CPP)", "setting": "[1]", "result": "inhibits cocaine reward"}, {"measurement": "cocaine reward / conditioned place preference (CPP)", "setting": "[1]; listed as AMD 3100", "result": "inhibits conditioned place preference (CPP)"}, {"measurement": "locomotor activation produced by an acute cocaine injection", "setting": "[2]; 5, 10 mg/kg pretreatment", "result": "reduced locomotor activation"}, {"measurement": "locomotor activation produced by cocaine", "setting": "[2]", "result": "inhibits"}, {"measurement": "cocaine taking in rat self-administration assays", "setting": "[3]", "result": "inhibits"}]}
{"compound": "SSTYR [SEQ ID No.: 2]", "values": [{"measurement": "EC50", "setting": "[4]", "result": 1, "unit": "pM"}]}
{"compound": "TTNYT [SEQ ID No.: 1, all-D-TTNYT]", "values": [{"measurement": "cocaine induced locomotor behavior (locomotor activity counts)", "setting": "[5]; listed as RAP103", "result": "inhibited psychostimulant cocaine induced locomotor behavior"}, {"measurement": "cocaine induced locomotor behavior (locomotor activity counts)", "setting": "[5]; listed as RAP-103", "result": "blocks the locomotor inducing effects of cocaine"}, {"measurement": "naloxone precipitated withdrawal signs (wet dog shakes and eye blink)", "setting": "[6]; listed as RAP103", "result": "significantly inhibited naloxone precipitated withdrawal signs"}, {"measurement": "naloxone precipitated withdrawal signs (wet dog shakes and eye blink)", "setting": "[6]; listed as RAP-103", "result": "blocks naloxone-precipitated withdrawal signs"}, {"measurement": "opioid self-administration by lever press for drug infusions", "setting": "[7]", "result": "significantly inhibited opioid self-administration"}, {"measurement": "motivation to work for reinforcer (self-administer an opioid), progressive-ratio", "setting": "[7]; R103 0.02, 0.1, and 0.5 mg/kg 15 min before sessions", "result": "significantly reduced"}, {"measurement": "expression of chemokines and cytokines", "setting": "[8]; [11]", "result": "inhibited expression of chemokines and cytokines"}, {"measurement": "inflammation: CCL2 in the sciatic nerves", "setting": "[8]; STZ rats, 0.5 mg/kg, for 7 days, p.o., FIG. 3A", "result": "significantly inhibited inflammation"}, {"measurement": "inflammation: CCL3 in the sciatic nerves", "setting": "[8]; STZ rats, 0.5 mg/kg, for 7 days, p.o., FIG. 3B", "result": "significantly inhibited inflammation"}, {"measurement": "cold allodynia", "setting": "[9]", "result": "reversed cold allodynia"}, {"measurement": "neuropathic pain", "setting": "[10]; [11]", "result": "reduced neuropathic pain"}, {"measurement": "mechanical allodynia", "setting": "[10]; STZ induced diabetic rats, oral administration", "result": "reversed mechanical allodynia"}, {"measurement": "established hypersensitivity", "setting": "[10]; STZ rats, 0.5-0.02 mg/Kg b.w., daily, for 7 days", "result": "complete reversal of established hypersensitivity"}]}
{"compound": "STNYT [SEQ ID No.: 3]", "values": [{"measurement": "EC50", "setting": "[4]", "result": 3, "unit": "pM"}]}
{"compound": "COc1ccc(C2(O)CCC(N3CC[C@@H](NC(=O)CNC(=O)c4cccc(C(F)(F)F)c4)C3)CC2)cn1", "note": "(some centres unmarked) [INCB 3284]", "values": [{"measurement": "cocaine reward / conditioned place preference (CPP)", "setting": "[1]", "result": "prevented psychostimulant-induced CPP"}]}
